Earlier results in patent US6638541B1, “Sexual desire and performance enhancement with protein-bound tryptophan” (priority 2002, dated 2003).

Experiments:
[1] = target: T1, plasma albumin (Homo sapiens, UniProt P02768); conditions: after absorption, circulating in the blood
T1 construct: host or cells: blood plasma in vivo (endogenous circulating albumin)

[2] = system: sleep / sleep latency
[3] = higher dosages (greater than 12 gm per day); Hartmann, 1977

T1 sequence (P02768 25-609): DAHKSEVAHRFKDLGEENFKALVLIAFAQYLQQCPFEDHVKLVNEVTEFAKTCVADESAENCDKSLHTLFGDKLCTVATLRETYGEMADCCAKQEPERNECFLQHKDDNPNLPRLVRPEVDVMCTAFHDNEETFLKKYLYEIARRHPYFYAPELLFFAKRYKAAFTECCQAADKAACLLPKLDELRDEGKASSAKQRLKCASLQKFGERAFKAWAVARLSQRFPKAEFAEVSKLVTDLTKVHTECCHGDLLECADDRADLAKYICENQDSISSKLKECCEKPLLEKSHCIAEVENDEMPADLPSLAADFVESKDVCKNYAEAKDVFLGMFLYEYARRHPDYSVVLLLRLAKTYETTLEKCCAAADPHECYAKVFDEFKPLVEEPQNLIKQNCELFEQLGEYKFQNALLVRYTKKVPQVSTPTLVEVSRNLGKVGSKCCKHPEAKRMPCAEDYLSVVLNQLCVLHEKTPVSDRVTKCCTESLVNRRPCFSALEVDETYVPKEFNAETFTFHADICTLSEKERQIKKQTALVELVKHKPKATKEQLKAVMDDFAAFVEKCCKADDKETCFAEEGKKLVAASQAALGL

N[C@@H](Cc1c[nH]c2ccccc12)C(=O)O [tryptophan]
fraction circulating as free tryptophan [1]: 20%
fraction of tryptophan in blood bound to plasma albumin [1]: approximately 80%
dose at which the hypnotic dose-response curve plateaus ([2]; fairly flat dose-response curve, Schneider-Helmut and Spinweber, 1986): approximately 1000 mg
dose sufficient to produce improved sleep ([2]; given alone, people with mild insomnia or longer-than-average sleep latency): 250 mg
most frequent complaints [3]: daytime sedation and nausea
